Test results from patent EP1304333A2, “6,7-Oxygenated steroids and uses related thereto” (Inflazyme Pharmaceuticals, Ltd., priority 1996, dated 1998).

Columns and labels:
rabbit platelets = assay: Inhibition of PAF-induced aggregation of rabbit platelets; format: cell-based; conditions: 80 µM compound, 5 min preincubation, PAF-induced aggregation (title: 0.1 nM PAF) vs DMSO alone; for inhibition at 80 µM: Oryctolagus cuniculus, Platelet
Method: The assay system used to evaluate the ability of compounds to inhibit the aggregation of platelets in response to exogenous stimuli is indicative of anti-thrombotic or thrombolytic activity.
Platelets were isolated from rabbit blood and prepared at a density of 2.4 x 10^8 cells/ml in Tyrodes buffer (pH 7.2) containing Ca^2+. Platelets were incubated with each compound for 5 min at 37°C prior to stimulation. Platelets were stimulated with 1 nM platelet activating factor (PAF; EC75) in the presence of each of the compounds and aggregation was monitored for 5 min. Compounds were solubilized in dimethylsulfoxide (DMSO) and aggregation was measured as a percentage of the response to 1 nM PAF obtained in the presence of the appropriate concentration of DMSO. The degree of inhibition caused by each sample was calculated using the control response in the presence of DMSO equal to 100%.

isolated trachea = assay: Allergen (OA)-induced contraction of isolated trachea from sensitized guinea pigs; set-up: species or system guinea pig; conditions: 20 µM compound
Method: The effects of a number of the compounds described herein on allergen-induced bronchoconstriction were evaluated for anti-asthma activity. The ability of a compound to inhibit allergen-induced decreases in lung function in sensitized guinea pigs in response to antigen-challenge is indicative of anti-asthma activity. In particular, the model system is useful in the evaluation of the potential effects of a compound in the treatment of the early asthmatic reaction (EAR) when severe bronchoconstriction occurs.
Guinea pigs were exposed to a nebulized solution of 1% ovalbumin (OA) in saline for 15 min. […] Tracheal rings were prepared and bathed in Krebs-Henseleit solution at 37°C and aerated with 5% CO2 in O2. Tissues were suspended under a resting tension of 2 g and isometric contractions were measured using force-displacement transducers coupled to a polygraph. Tissues were incubated with each compound or 0.1% dimethylsulfoxide (as a control) for 20 min, after which increasing concentrations of OA (0.001 - 100 µg/ml) were added to the tissue. After the final concentration of OA was added and the response was recorded, the tissues were stimulated with 100 µM methacholine which caused maximum contraction of the trachea. The magnitude of the contraction induced by OA in the presence of each compound was expressed as a percentage of the maximum contraction obtained using methacholine (100 µM).

[1] = test system: rat mast cell line (RBL-2H3); assay: Antigen-induced release of hexosaminidase from passively sensitized rat mast cells; format: cell-based; conditions: Table 3; each 25 µM; vs DMSO alone
Method: The anti-allergic effects of various polyhydroxylated steroids of the present invention were evaluated by measuring their effect on antigen-induced secretion of hexosaminidase from a passively sensitized rat mast cell line (RBL-2H3) and a murine mast cell line (MC/9). The ability of agents to inhibit the release of mast cell granule contents, e.g., histamine and hexosaminidase, is indicative of anti-allergy and/or anti-asthma activity.
Hexosaminidase is released from the mast cell granule along with histamine and other mediators during antigen challenge. RBL-2H3 and MC/9 cells were grown in culture and passively sensitized to dinitrophenol (DNP) using anti-human-DNP (IgE). […] Aliquots of the supernatant were removed and used to measure the amount of hexosaminidase released during challenge with the antigen. […] The effect of each compound was determined as a percentage of the antigen-induced response (minus background release) obtained in the presence of DMSO alone, as set forth in Tables 2 and 3. These values were used to determine the degrees of inhibition of antigen-induced hexosaminidase release from the cells.

[2] = test system: ileum from sensitized guinea pigs; assay: Antigen (ovalbumin)-induced contraction of isolated ileum from sensitized guinea pigs; set-up: species or system guinea pig; conditions: each 30 µM, 20 min; 100 µg/ml ovalbumin; mean, n=3-4, vs DMSO alone
Method: The ability of compounds to inhibit allergen-induced contraction of ileum from sensitized animals is indicative of antiallergic activity. Sensitized guinea pig ileum is particularly useful in measuring the immediate allergic response.
The guinea pig ileum has been used to evaluate the ability of compounds to inhibit allergen-induced histamine and mediator release causing smooth muscle contraction. Guinea pigs were sensitized by an intraperitoneal injection of 100 mg ovalbumin and an intramuscular injection of 50 mg ovalbumin on day 0, followed by a second intramuscular injection of 50 mg ovalbumin on day 1. […] Segments of ileum were prepared and suspended, with muscle contractions being measured in the longitudinal plane, in Tyrode's buffer at 37°C and aerated with 5% CO2 in O2. Tissues were suspended under a resting tension of 2 grams and isometric contractions were measured using force-displacement transducers coupled to a polygraph. Tissues were stimulated with 3 µM histamine 3 times to ensure reproducible contractions were obtained. Tissues were then incubated with each compound (30 µM) or 0.15% dimethylsulphoxide (DMSO) as a control, for 20 min, after which time the tissues were challenged with 100 µg/ml ovalbumin. The magnitude of the contraction induced by OA in the presence of each compound was expressed as a percentage of the contraction obtained to 3 µM histamine. […]

Molecule	%Inhibition at 80 µM (rabbit platelets)	percentage contraction compared to 100µM methacholine (100%) (isolated trachea; Study 1, 0.001 µg/ml OA)	percentage contraction compared to 100µM methacholine (100%) (isolated trachea; Study 1, 0.003 µg/ml OA)	percentage contraction compared to 100µM methacholine (100%) (isolated trachea; Study 1, 0.01 µg/ml OA)	percentage contraction compared to 100µM methacholine (100%) (isolated trachea; Study 1, 0.03 µg/ml OA)	percentage contraction compared to 100µM methacholine (100%) (isolated trachea; Study 1, 0.1 µg/ml OA)	percentage contraction compared to 100µM methacholine (100%) (isolated trachea; Study 1, 0.3 µg/ml OA)	percentage contraction compared to 100µM methacholine (100%) (isolated trachea; Study 1, 1.0 µg/ml OA)	percentage contraction compared to 100µM methacholine (100%) (isolated trachea; Study 1, 3.0 µg/ml OA)	percentage contraction compared to 100µM methacholine (100%) (isolated trachea; Study 1, 10.0 µg/ml OA)	percentage contraction compared to 100µM methacholine (100%) (isolated trachea; Study 1, 30.0 µg/ml OA)	Percentage Inhibition (mean) RBL-2H3 Cells [1]	inhibition at 80 µM (rabbit platelets)	Percentage Inhibition [2]	percentage contraction compared to 100µM methacholine (100%) (isolated trachea; Study 2, 0.01 µg/ml OA)	percentage contraction compared to 100µM methacholine (100%) (isolated trachea; Study 2, 0.1 µg/ml OA)	percentage contraction compared to 100µM methacholine (100%) (isolated trachea; Study 2, 1 µg/ml OA)	percentage contraction compared to 100µM methacholine (100%) (isolated trachea; Study 2, 10 µg/ml OA)	percentage contraction compared to 100µM methacholine (100%) (isolated trachea; Study 2, 100 µg/ml OA)
3β, 4α, 6α, 7β, 17β-pentahydroxy-5α-androstane 6,7-acetonide [Compound 246]	21%	2.6%	4.0%	6.5%	9.7%	12.2%	15.3%	20.0%	21.0%	23.0%	22.0%	29.4%	–	–	–	–	–	–	–
C[C@]12CC[C@@H](O)[C@H](O)C1[C@@H](O)[C@H](O)C1C2CC[C@]2(C)C(=O)CCC12 (some centres unmarked) [Compound 145]	–	0.8%	6.2%	5.9%	7.6%	8.3%	13.6%	14.8%	20.0%	28.0%	31.0%	–	–	–	–	–	–	–	–
CC(C)[C@@H]1CC(O)OC([C@@H](C)[C@H]2CC(=O)[C@@H]3[C@@H]4C(O)C(O)C5C(O)C(O)CC[C@]5(C)[C@H]4CC[C@]23C)C1 (stereo partly drawn) [Compound 165, 22,29-epoxy-3,4,6,7,29-pentahydroxy-14β-stigmastan-15-one]	–	–	–	–	–	–	–	–	–	–	–	–	51.2%	27.0%	–	–	–	–	–
CC1(C)O[C@@H]2C3C(CC[C@@]4(C)C3CC[C@@H]4O[Si](C)(C)C(C)(C)C)[C@@]3(C)CC[C@H](O)[C@@H](O)C3[C@H]2O1 (some centres unmarked) [Compound 236]	–	1.9%	5.6%	5.6%	5.6%	11.1%	16.7%	39%	28%	39%	41%	–	–	–	–	–	–	–	–
C[C@]12CC[C@@H](O)[C@H](O)[C@@H]1[C@@H](O)[C@H](O)[C@@H]1[C@@H]2CC[C@]2(C)[C@@H](O)CC[C@@H]12 [Compound 241, 3α,4β,6α,7β,17β-pentahydroxy-5α-androstane]	–	8.5%	12.6%	17.1%	25.8%	31.0%	33.4%	36.3%	34.4%	35.0%	37.0%	–	93.1%	–	–	–	–	–	–
C[C@]12CC[C@@H](O)C[C@@H]1[C@@H](O)[C@H](O)[C@@H]1[C@@H]2CC[C@]2(C)C(=O)CC[C@@H]12 [Compound 326]	–	–	–	–	–	–	–	–	–	–	–	–	–	–	0%	10.25%	23.4%	43.9%	49.1%
C[C@]12CC[C@@H](O)C[C@@H]1[C@@H](O)[C@H](O)[C@@H]1[C@@H]2CC[C@]2(C)[C@@H](O)CC[C@@H]12 [Compound 327]	–	–	–	–	–	–	–	–	–	–	–	–	–	–	0%	0%	9.1%	27.3%	40.9%
CC[C@H]1CCC2C3C(CC[C@@]21C)[C@@]1(C)CC[C@@H](O)CC1[C@@H](O)[C@@H]3O (some centres unmarked) [Compound 339]	–	–	–	–	–	–	–	–	–	–	–	–	–	36.3%	–	–	–	–	–
